ChEMBL document CHEMBL4261653, “PPARγ-sparing thiazolidinediones as insulin sensitizers. Design, synthesis and selection of compounds for clinical development” (Bioorg Med Chem, 2018)

Assay: Oral bioavailability in rat
Format: ADME, organism-based
Settings: in vivo

SMILES | bioavailability
COc1cccc(C(=O)COc2ccc(CC3SC(=O)NC3=O)cc2)c1 (configuration not stated) | 100%
CCc1ccc(C(=O)COc2ccc(CC3SC(=O)NC3=O)cc2)nc1 (configuration not stated) [MITOGLITAZONE] | 73%
